From patent publication US20150133450A1, “METHODS AND COMPOSITIONS USEFUL FOR TREATING DISEASES INVOLVING BCL-2 FAMILY PROTEINS WITH QUINOLINE DERIVATIVES” (Eutropics Pharmaceuticals, Inc., priority 2012, published 2015)

Tests used:
[1] = tested on: DHL-10 cell line; assay: In situ mitochondrial cytochrome c release assay, DHL-10; format: cell-based; conditions: semi-permeabilized cells, 1 hour; Bax/Bak-deficient cell line; FIG. 3
Text: (§1) The on-target activity of compound 12 was validated. Changes in mitochondrial integrity were observed utilizing anti-cytochrome c conjugated to Alexa488 (BD). When the mitochondria are intact, they retain cytochrome c and have bright, punctate staining with the antibody whereas cells with compromised mitochondrial integrity will lose cytochrome c and will not stain with the antibody. This can be observed by microscopy as well as measured by a shift in fluorescence on the FL1 channel of a flow cytometer.
(§2) The selective response of mitochondria in semi-permeabilized cell lines to the compounds was observed. The assay was adapted from (Campos et al. (2006) Cytometry Part A. 69(A):515-523, which is hereby incorporated by reference in its entirety).
(§3) Suspension cell lines SUDHL6, SUDHL8, and SUDHL10 were grown in RPMI, washed once in 1×PBS and re-suspended at a concentration of 2e6/ml in assay buffer with 0.0025% Digitonin. Assay buffer; 300 mM Trehalose, 10 mM HEPES-KOH pH 7.7, 80 mM KCl, 1 mM EGTA, 1 mM EDTA, 0.1% BSA, 5 mM Succinate. […] Cytochrome c loss was measured by microscopy. At least 100 cells per treatment were counted and scored as positive for cytochrome c loss if they lacked staining. In both methods DMSO was calculated as 0% cytochrome c loss and the Bim response for DHL6 was used to determine 100% cytochrome c loss.

[2] = tested on: Mcl-1 1780 cell line; assay: DAPI fluorescence cell-based cytotoxicity (apoptosis) assay, Mcl-1 1780; parameters: species or system mouse; conditions: 1 μM, 500 nM, 250 nM, 125 nM; 24 hours; FIG. 2
Method: (§4) The mouse leukemia-derived cell lines Mcl-1-1780 and Bcl-2-1863 (Ryan et al., Proc. Nat. Acad. Sci USA, 107, 12895-12900, which is hereby incorporated by reference in its entirety) were obtained under license from Dana Farber Cancer Institute. Cells were grown in RPMI 1640 medium (GIBCO-BRL) with 2 mM L-glutamine, 4.5 g/L glucose, 1.0 mM sodium pyruvate and 5% fetal bovine serum. Cells were expanded in tissue culture in appropriate media and then sub-cultured into 96-well plates at a seeding density of 20,000 cells per well. After incubation for 24 hours, cells were treated with compounds that are titrated into appropriate medium with FCS. Four concentrations of compound were used: 1 μM, 500 nM, 250 nM, and 125 nM. Assay was run in triplicate for each compound at each concentration and averages were calculated. Cells were treated with compound for 24 hours, then fixed with methanol and stained with the DNA-binding agent DAPI (4′,6-diamidino-2-phenylindole). The cells were then examined by fluorescent microscopy; cells in which caspase 3 and caspase 7 have not been activated will emit at […] when excited by […] light. Caspase-mediated cleavage of nucleosomal proteins causes condensed, pycnotic nuclear morphology that may be measured by cell counting.

[3] = tested on: DHL-6 cell line; assay: In situ mitochondrial cytochrome c release assay, DHL-6; format: cell-based; conditions: semi-permeabilized cells, 1 hour; Bax/Bak-functional cell line; FIG. 3
Text: as §1, §2, §3

[4] = tested on: Bcl-2 1863 cell line; assay: DAPI fluorescence cell-based cytotoxicity (apoptosis) assay, Bcl-2 1863; parameters: species or system mouse; conditions: 1 μM, 500 nM, 250 nM, 125 nM; 24 hours; relative to Mcl-1 1780; FIG. 2
Method: as §4

[5] = tested on: DHL-8 cell line; assay: In situ mitochondrial cytochrome c release assay, DHL-8; format: cell-based; conditions: semi-permeabilized cells, 1 hour; reduced mitochondrial priming; FIG. 3
Text: as §1, §2, §3

CCN1CCN(C(c2ccc(C(F)(F)F)cc2)c2ccc3cccnc3c2O)CC1 (centres unmarked) [Compound 12, 7-((4-ethylpiperazin-1-yl)(4-(trifluoromethyl)phenyl)methyl)quinolin-8-ol]
Cytochrome c release, DHL-10 [1]: lack of activity | Induction of apoptosis (DAPI nuclear morphology) in Mcl-1 1780 [2]: induce apoptosis | Cytochrome c release, DHL-6 [3]: activity | Induction of apoptosis (DAPI nuclear morphology) in Bcl-2 1863 [4]: significantly lesser degree | Cytochrome c release, DHL-8 [5]: reduced activity
